According to patent US8227464B2, “Substituted oxazolidinone derivatives” (Concert Pharmaceuticals, Inc., priority 2007, dated 2012):
Where two headings read alike, the source gives them in different places.

What was measured:
[1] = major in vivo metabolites of rivaroxaban; Weinz et al. 2004; cited from earlier work
[2] = Pharmacokinetics in male Sprague Dawley rats following oral co-dosing; type: in vivo
Description: Separate solutions of rivaroxaban and Compound 101 were prepared using 20% ethanol, 60% PEG400, 20% dimethyl isosorbide to provide a concentration of 10 mg/mL. The concentration of each solution was confirmed by HPLC prior to further use. A combination dose of rivaroxaban and Compound 101 was prepared by mixing the two solutions in a 1.09:1 ratio to yield a final concentration of 5.45 mg/mL of rivaroxaban and 5 mg/mL for Compound 101.
Two male Sprague Dawley rats were dosed by oral gavage with the combination dose containing rivaroxaban (5.45 mg/kg) and compound 101 (5 mg/kg). Blood samples (approximately 0.25 mL) were collected retro-orbitally following oral administration at 0 minutes (min) (pre-dose), 5 min, 15 min, 30 min, 1 hr, 1.5 hr, 2 hr, 4 hr, 6 hr, 8 hr, 10 hr and 24 hr post-dose. Blood samples were stored on ice and centrifuged within 15 minutes of collection to harvest plasma. The plasma was decanted immediately and frozen at −20° C. until analysis.
Analyses of plasma samples were performed using a high performance liquid chromatography/mass spectrometry (HPLC/MS/MS) method. The LC system comprised an Agilent (Agilent Technologies Inc. USA) liquid chromatograph equipped with an isocratic pump (1100 series), an autosampler (1100 series) and a degasser (1100 series). Mass spectrometric analysis was performed using an API3000 (triple-quadrupole) instrument from AB Inc (Canada) with an ESI interface. The data acquisition and control system were created using Analyst 1.4 software from ABI Inc. Data for rivaroxaban was corrected by multiplying by a factor of 0.91 to compensate for the 9% increased amount administered as compared to Compound 101.

[3] = use of rivaroxaban; Kubitza et al. 2005; cited from earlier work
[4] = male Sprague Dawley rats, oral gavage co-dose: rivaroxaban 5.45 mg/kg (data multiplied by 0.91) and Compound 101 5 mg/kg, plasma

In the case of `O=C(O)CNC(=O)c1ccc(Cl)s1` [Compound M4], the activity of metabolite [1] is listed as “Neither metabolite is active”.
For `O=C(NC[C@H]1CN(c2ccc(N3CCOCC3=O)cc2)C(=O)O1)c1ccc(Cl)s1` [Rivaroxaban, 5-chloro-N-[2-oxo-3-[4-(3-oxomorpholin-4-yl)phenyl]oxazolidin-5(S)-ylmethyl]thiophene-2-carboxamide, reference compound], the AUC(0-inf) ([2]; rat, male Sprague Dawley rats, oral gavage co-dose: rivaroxaban 5.45 mg/kg (data multiplied by 0.91) and Compound 101 5 mg/kg, plasma) is given as 2930 ng·h/mL, the Cmax ([2]; rat, male Sprague Dawley rats, oral gavage co-dose: rivaroxaban 5.45 mg/kg (data multiplied by 0.91) and Compound 101 5 mg/kg, plasma, read-out: Cmax) is given as 842 ng/mL and the adverse events [3] is given as “ageusia (loss of taste), ecchymosis (bruising) and headache”.
With `[2H]C1([2H])OC([2H])([2H])C([2H])([2H])N(c2ccc(N3C[C@H](CNC(=O)c4ccc(Cl)s4)OC3=O)cc2)C1=O` [Compound 101, (S)-5-chloro-N-((2-oxo-3-(4-(3-oxo-2,2,5,5,6,6-d6-morpholino)phenyl)oxazolidin-5-yl)methyl)thiophene-2-carboxamide] the “AUC∞” value [2, 4] was 3424.33 ng·h/mL, the Cmax [2, 4] was 962 ng/mL and the “increase in AUC as compared to rivaroxaban” value ([2]; rats, oral co-dosing) was “greater than 16%”. The “increase in Cmax as compared to rivaroxaban” value ([2]; rats, oral co-dosing) was “greater than 14%”.
